This passage reports Emax and EC50 results from US20260176320A1, “MODULATORS OF G-PROTEIN COUPLED RECEPTORS” (priority 2018, published 2026).

Where two headings read alike, the source gives them in different places. Square brackets hold non-standard residues; d marks the D form. Peptide text beside a SMILES is read from it. * marks the point of attachment. X1 = O=C(CSCC(=O)*)NCCN1C(=O)c2ccccc2C1=O; Aib = CC(C)(N)C(=O)O A value given as a limit tells only on which side of the number the result lay.

Common to all, as to type: cell-based
Assay [1] has as its target T1, GLP-1R (Homo sapiens, UniProt P43220). The assay can be described thus: HitHunter cAMP assay (GLP-1R). Particulars: cAMP; for Emax: read-out: (Emax) GLP-1R. In a few lines: (§1)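 Cells were resuspended in HBSS plus HEPES, IBMX (625 μM) and BSA, then dispensed with antibody at 10,000 per well. Agonists followed as 22-point twofold series, 30 min at room temperature. Antibody reagent and detection steps ran 1 h and overnight in the dark before luminescence.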
On the technique in general: Cyclic AMP is a second messenger, typically raised through Gs and lowered through Gi signalling.

The target of assay [2] is T1, GLP-1R. The experiment in a line: PathHunter β-arrestin assay. The protocol: The effects of the chemical entities described herein on β-arrestin signaling and associated downstream processes (e.g., those delineated above) can be assessed using conventional methods, e.g., PathHunter β-arrestin Assay for determining β-arresting coupling (see Examples section). […] It has been shown that b-arrestin coupling is a key strep in receptor internalization and subsequent de-sensitization and attenuation of signaling.
5,000 cells were seeded in appropriate cell culture media per well in a low volume 384-well tissue culture plate. The assay plate was incubated with cells overnight at 37° C. and 5% CO2. The media was removed, and 5 μL of appropriate cell culture media containing 0.2% BSA was added. Agonist serial dilutions in a separate 384 well dilution plate in a 22-point series of 2× dilutions of agonist in DMSO were performed as follows. 80 μL of the highest concentration of Agonist/DMSO was added to well No. 1. 40 μL was removed from well No. 1, and added to well No. 2, followed by gentle mixing. […] This process was repeated until well No. 22. Additional serial dilutions for additional agonists were set up in a similar manner. 100 nL of each 2× agonist serial dilution was added in duplicate to the designated agonist rows of the assay plate using the Labcyte ECHO. Assay plate was incubated for 90 minutes at 37° C. and 5% CO2. A stock of Working Detection Solution in a separate 15 ml polypropylene tube was prepared by mixing 19 parts of Cell Assay Buffer, 5 parts of Substrate Reagent 1, 1 part Substrate Reagent 2. […] Plates were spun down briefly. Assay plate was incubated for 3 hour at room temperature in the dark for the immunocompetition reaction to occur. Samples were read on Tecan i-control plate reader using luminescence mode with 100 ms integration time. Data analysis was performed using GraphPad Prism.

For the next assay, the target named is T2, GIP-R (Homo sapiens, UniProt P48546).
T2 sequence (P48546 22-466): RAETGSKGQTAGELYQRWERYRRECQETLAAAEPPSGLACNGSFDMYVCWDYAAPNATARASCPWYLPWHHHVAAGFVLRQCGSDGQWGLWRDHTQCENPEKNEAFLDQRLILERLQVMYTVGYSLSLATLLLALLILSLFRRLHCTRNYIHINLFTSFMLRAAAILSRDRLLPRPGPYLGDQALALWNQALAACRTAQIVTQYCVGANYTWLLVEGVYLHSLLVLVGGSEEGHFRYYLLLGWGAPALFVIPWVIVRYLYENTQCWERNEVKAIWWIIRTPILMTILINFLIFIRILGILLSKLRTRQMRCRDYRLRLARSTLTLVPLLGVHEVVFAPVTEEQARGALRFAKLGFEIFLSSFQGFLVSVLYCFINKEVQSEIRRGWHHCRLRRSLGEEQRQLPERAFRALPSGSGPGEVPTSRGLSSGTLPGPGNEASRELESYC
The assay can be described thus: HitHunter cAMP assay (GIP-R). Particulars: cAMP; for Emax: read-out: (Emax) GIP-R. In a few lines: as §1

The mark [3] stands for this setting: Table 3, read-out: EC50 GLP-1R/nM.
The mark [4] stands for this setting: Table 3A, read-out: EC50 GLP-1R/nM.
Where [5] appears, read: PathHunter β-arrestin assay, read-out: β-arrestin activity EC50.
[6] abbreviates: Table 3, read-out: EC50 GIP-R/nM.
Where [7] appears, read: Table 3A, read-out: EC50 GIP-R/nM.

T1 sequence (P43220 24-463): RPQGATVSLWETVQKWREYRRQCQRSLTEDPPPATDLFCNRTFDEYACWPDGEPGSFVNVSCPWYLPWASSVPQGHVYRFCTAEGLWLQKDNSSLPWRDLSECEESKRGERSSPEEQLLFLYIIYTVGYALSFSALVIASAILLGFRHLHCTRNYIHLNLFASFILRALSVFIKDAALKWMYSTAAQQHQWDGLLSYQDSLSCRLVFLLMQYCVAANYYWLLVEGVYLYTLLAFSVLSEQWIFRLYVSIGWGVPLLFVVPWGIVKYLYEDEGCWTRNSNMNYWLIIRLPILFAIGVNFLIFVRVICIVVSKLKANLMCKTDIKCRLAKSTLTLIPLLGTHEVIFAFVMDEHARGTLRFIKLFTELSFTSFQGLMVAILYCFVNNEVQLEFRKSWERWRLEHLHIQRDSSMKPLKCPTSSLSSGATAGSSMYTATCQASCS

One may read the Emax as the size of the effect at its maximum, as opposed to the concentration needed. As to `CCCCCCCCCCCCCCCC(=O)N[C@@H](CCC(=O)NCCCC[C@H](NC(=O)[C@H](CO)NC(=O)[C@@H]1CCCN1C(=O)[C@@H]1CCCN1C(=O)[C@@H]1CCCN1C(=O)[C@H](C)NC(=O)CNC(=O)[C@H](CO)NC(=O)[C@H](CO)NC(=O)[C@@H]1CCCN1C(=O)CNC(=O)CNC(=O)[C@H](C)NC(=O)[C@H](CC(C)C)NC(=O)[C@H](CC(C)C)NC(=O)[C@H](Cc1c[nH]c2ccccc12)NC(=O)[C@H](CC(N)=O)NC(=O)[C@@H](NC(=O)[C@H](Cc1ccccc1)NC(=O)[C@H](CCC(=O)O)NC(=O)C(C)(C)NC(=O)[C@H](C)NC(=O)[C@H](C)NC(=O)[C@H](CCC(N)=O)NC(=O)[C@H](CCCCN)NC(=O)[C@H](CC(=O)O)NC(=O)[C@H](CC(C)C)NC(=O)[C@H](Cc1ccc(O)cc1)NC(=O)[C@@H](NC(=O)[C@H](CO)NC(=O)[C@H](Cc1ccc(O)cc1)NC(=O)[C@H](CC(=O)O)NC(=O)[C@H](CO)NC(=O)[C@@H](NC(=O)[C@H](Cc1ccccc1)NC(=O)[C@@H](NC(=O)CNC(=O)[C@H](CCC(=O)O)NC(=O)CC(C)(C)NC(=O)CCN1CCCCC1=O)[C@@H](C)O)[C@@H](C)O)[C@@H](C)CC)C(C)C)C(N)=O)C(=O)O` [Compound 3], the maximum response (Emax) at GLP-1R [1] (Table 3) and on GLP-1R [1] (Table 3A) was 96% in each case. Moreover, the figures for the EC50 at GLP-1R [1] (setting [3]), on GLP-1R [1] (setting [4]) and at GLP-1R [2] (setting [5]) were 0.1 to 1 nM, 0.1 to 1 nM and greater than 1000 nM, respectively.
On to `CCCCCCCCCCCCCCCC(=O)N[C@@H](CCC(=O)NCCCC[C@H](NC(=O)[C@H](CO)NC(=O)[C@@H]1CCCN1C(=O)[C@@H]1CCCN1C(=O)[C@@H]1CCCN1C(=O)[C@H](C)NC(=O)CNC(=O)[C@H](CO)NC(=O)[C@H](CO)NC(=O)[C@@H]1CCCN1C(=O)CNC(=O)CNC(=O)[C@H](C)NC(=O)[C@H](CC(C)C)NC(=O)[C@H](CC(C)C)NC(=O)[C@H](Cc1c[nH]c2ccccc12)NC(=O)[C@H](CC(N)=O)NC(=O)[C@@H](NC(=O)[C@H](Cc1ccccc1)NC(=O)[C@H](CCC(=O)O)NC(=O)C(C)(C)NC(=O)[C@H](C)NC(=O)[C@H](C)NC(=O)[C@H](CCC(N)=O)NC(=O)[C@H](CCCCN)NC(=O)[C@H](CC(=O)O)NC(=O)[C@H](CC(C)C)NC(=O)[C@H](Cc1ccc(O)cc1)NC(=O)[C@@H](NC(=O)[C@H](CO)NC(=O)[C@H](Cc1ccc(O)cc1)NC(=O)[C@H](CC(=O)O)NC(=O)[C@H](CO)NC(=O)[C@@H](NC(=O)[C@H](Cc1ccccc1)NC(=O)[C@@H](NC(=O)CNC(=O)[C@H](CCC(=O)O)NC(=O)C(C)(C)CNC(=O)CCN1CCCCC1=O)[C@@H](C)O)[C@@H](C)O)[C@@H](C)CC)C(C)C)C(N)=O)C(=O)O` [Compound 4], for which the Emax on GLP-1R [1] (Table 3) was determined as 100%; on GLP-1R [1] (Table 3A), 100%; at GIP-R (Table 3) it was 23%; on GIP-R (Table 3A), 23%. For the same compound, the EC50 is 0.1 to 1 nM on GLP-1R [1] (setting [3]); less than 0.1 nM at GLP-1R [1] (setting [4]); 10 to 1000 nM on GLP-1R [2] (setting [5]); 1 to 10 nM on GIP-R (setting [6]); 10 to 100 nM on GIP-R (setting [7]).
Regarding `CCCCCCCCCCCCCCCC(=O)N[C@@H](CCC(=O)NCCCC[C@H](NC(=O)[C@H](CO)NC(=O)[C@@H]1CCCN1C(=O)[C@@H]1CCCN1C(=O)[C@@H]1CCCN1C(=O)[C@H](C)NC(=O)CNC(=O)[C@H](CO)NC(=O)[C@H](CO)NC(=O)[C@@H]1CCCN1C(=O)CNC(=O)CNC(=O)[C@H](C)NC(=O)[C@H](CC(C)C)NC(=O)[C@H](CC(C)C)NC(=O)[C@H](Cc1c[nH]c2ccccc12)NC(=O)[C@H](CC(N)=O)NC(=O)[C@@H](NC(=O)[C@H](Cc1ccccc1)NC(=O)[C@H](CCC(=O)O)NC(=O)C(C)(C)NC(=O)[C@H](C)NC(=O)[C@H](C)NC(=O)[C@H](CCC(N)=O)NC(=O)[C@H](CCCCN)NC(=O)[C@H](CC(=O)O)NC(=O)[C@H](CC(C)C)NC(=O)[C@H](Cc1ccc(O)cc1)NC(=O)[C@@H](NC(=O)[C@H](CO)NC(=O)[C@H](Cc1ccc(O)cc1)NC(=O)[C@H](CC(=O)O)NC(=O)[C@H](CO)NC(=O)[C@@H](NC(=O)[C@H](Cc1ccccc1)NC(=O)[C@@H](NC(=O)CNC(=O)[C@H](CCC(=O)O)NC(=O)CSCC(=O)NCCN1CCCOC1=O)[C@@H](C)O)[C@@H](C)O)[C@@H](C)CC)C(C)C)C(N)=O)C(=O)O` [Compound 6], the maximum response (Emax) at GLP-1R [1] (Table 3) was 95%; at GLP-1R [1] (Table 3A), 95%; at GIP-R (Table 3) it was 75%; at GIP-R (Table 3A), 75%. Also, the EC50 is 0.1 to 1 nM at GLP-1R [1] (setting [3]); 0.1 to 1 nM at GLP-1R [1] (setting [4]); greater than 1000 nM on GLP-1R [2] (setting [5]); 1 to 10 nM on GIP-R (setting [6]); 1 to 10 nM at GIP-R (setting [7]).
In the case of `CCCCCCCCCCCCCCCC(=O)N[C@@H](CCC(=O)NCCCC[C@H](NC(=O)[C@H](CO)NC(=O)[C@@H]1CCCN1C(=O)[C@@H]1CCCN1C(=O)[C@@H]1CCCN1C(=O)[C@H](C)NC(=O)CNC(=O)[C@H](CO)NC(=O)[C@H](CO)NC(=O)[C@@H]1CCCN1C(=O)CNC(=O)CNC(=O)[C@H](C)NC(=O)[C@H](CC(C)C)NC(=O)[C@H](CC(C)C)NC(=O)[C@H](Cc1c[nH]c2ccccc12)NC(=O)[C@H](CC(N)=O)NC(=O)[C@@H](NC(=O)[C@H](Cc1ccccc1)NC(=O)[C@H](CCC(=O)O)NC(=O)C(C)(C)NC(=O)[C@H](C)NC(=O)[C@H](C)NC(=O)[C@H](CCC(N)=O)NC(=O)[C@H](CCCCN)NC(=O)[C@H](CC(=O)O)NC(=O)[C@H](CC(C)C)NC(=O)[C@H](Cc1ccc(O)cc1)NC(=O)[C@@H](NC(=O)[C@H](CO)NC(=O)[C@H](Cc1ccc(O)cc1)NC(=O)[C@H](CC(=O)O)NC(=O)[C@H](CO)NC(=O)[C@@H](NC(=O)[C@H](Cc1ccccc1)NC(=O)[C@@H](NC(=O)CNC(=O)[C@H](CCC(=O)O)NC(=O)CSCC(=O)NCCN1CCC[C@@H](O)C1=O)[C@@H](C)O)[C@@H](C)O)[C@@H](C)CC)C(C)C)C(N)=O)C(=O)O` [Compound 7], the EC50 was less than 0.1 nM at GLP-1R [1] (EC50 GLP-1R/nM, Table 3); less than 0.1 nM at GLP-1R [1] (EC50 GLP-1R/nM, Table 3A); greater than 1000 nM at GLP-1R [2]; 1 to 10 nM on GIP-R (EC50 GIP-R/nM, Table 3); 10 to 100 nM at GIP-R (EC50 GIP-R/nM, Table 3A). Further, the Emax at GLP-1R [1] (Table 3) is 94%; at GLP-1R [1] (Table 3A) it was 94%; on GIP-R (Table 3), 29%; on GIP-R (Table 3A), 29%.
As for `CC[C@H](C)[C@H](NC(=O)[C@H](CO)NC(=O)[C@H](Cc1ccc(O)cc1)NC(=O)[C@H](CC(=O)O)NC(=O)[C@H](CO)NC(=O)[C@@H](NC(=O)[C@H](Cc1ccccc1)NC(=O)[C@@H](NC(=O)CNC(=O)[C@H](CCC(=O)O)NC(=O)CSCC(=O)NCCN1C(=O)c2ccccc2C1=O)[C@@H](C)O)[C@@H](C)O)C(=O)N[C@@H](Cc1ccc(O)cc1)C(=O)N[C@@H](CC(C)C)C(=O)N[C@@H](CC(=O)O)C(=O)N[C@@H](CCC(=O)O)C(=O)N[C@@H](CCC(N)=O)C(=O)N[C@@H](C)C(=O)N[C@@H](C)C(=O)NC(C)(C)C(=O)N[C@@H](CCC(=O)O)C(=O)N[C@@H](Cc1ccccc1)C(=O)N[C@H](C(=O)N[C@@H](CC(N)=O)C(=O)N[C@@H](Cc1c[nH]c2ccccc12)C(=O)N[C@@H](CC(C)C)C(=O)N[C@@H](CC(C)C)C(=O)N[C@@H](C)C(=O)NCC(=O)NCC(=O)N1CCC[C@H]1C(=O)N[C@@H](CO)C(=O)N[C@@H](CO)C(=O)NCC(=O)N[C@@H](C)C(=O)N1CCC[C@H]1C(=O)N1CCC[C@H]1C(=O)N1CCC[C@H]1C(=O)N[C@@H](CO)C(=O)N[C@@H](CCCCN)C(N)=O)C(C)C` [compound 150] (X1-EGTFTSDYSIYLDEQAA[Aib]EFVNWLLAGGPSSGAPPPSK-NH2), the EC50 on GLP-1R [2] was greater than 1000 nM. For the same compound, on GIP-R (Table 3), the Emax lay within 118 to 130%.
